Patent US8440794B2, “Peptide sequences, their branched form and use thereof for antimicrobial applications” (Universita' Degli Studi di Siena, priority 2008, dated 2013)
≈ marks a conversion by molar mass, not a printed value. Where a SMILES comes first, the peptide text is derived from it. Bridges are numbered along the chain shown (N, C = ends). Roman numbers before positions name the chains, in order. [ ]: non-standard residue; d: D form. βAla = NCCC(=O)O

Assays:
K pneumoniae 7086042 = type: cell-based, Klebsiella pneumoniae; settings: 7086042, 24 h
Method: (§1) M33, […], M35 and M36 MICs were determined against strains of several bacterial species, including Gram-negative pathogens and also Staphylococcus aureus (Table 1). MICs in the micromolar range were observed against several Gram-negatives including Pseudomonas aeruginosa, Acinetobacter baumannii and most Enterobacteriaceae, with the exception of Proteus mirabilis, Serratia marcescens and Burkholderia cepacia. Activity of peptides was retained against MDR strains with various resistance mechanisms (such as extended-spectrum beta-lactamases and carbapenemases), including MDR P. aeruginosa strains from CF patients. Antimicrobial profile of M33, […] and potency were overall similar to those of polymyxin B, although M33, M34, M35 and M36 also appeared to have some activity against S. aureus (Table 1).

K pneumoniae C8-27 = type: cell-based, Klebsiella pneumoniae; settings: C8-27, 24 h
Method: as §1

K pneumoniae FIPP-1 = type: cell-based, Klebsiella pneumoniae; settings: FIPP-1, 24 h
Method: as §1

S. aureus 3851 = type: cell-based, Staphylococcus aureus; settings: 3851, 24 h
Method: as §1

E. coli TG1 = test: Antibacterial activity against E. coli TG1 cells (CFU count after 75 min incubation, FIG. 1A); type: cell-based; settings: 75 minutes at 37° C., CFU counted
Description: FIG. 1. A, Antibacterial activity against E. coli TG1 cells. Comparison of the following tetra-branched peptides: M6 batch 1 synthesis (triangles), M6 batch 2 synthesis (squares), M6 batch 3 synthesis (white circles), which contain a mixture of Gln and pyroGlu (in unknown percentages) as first amino-acid, […] (asterisks), where the first amino-acid is 100% pyroGlu, and M33 (black circles), in which the first Gln was deleted. […] SD derived by means of three different experiments. Many different syntheses of M33 (and also of M34, M35 and M36, here not shown) gave perfectly overlapping results without any wavering outcome. B, Mass spectrometry analysis of tetra-branched peptide M6 crude mixture. Calculated molecular mass of M6 was 5195 Da. Two main peaks are present, one at 5197 Da corresponding to unmodified M6 and one at 5179 Da that corresponds to the secondary product with one pyroGlu in first position in the place of one of the four Gln. C, Mass spectrometry analysis of tetrabranched peptide M33 after 24 hours of incubation in serum. The peptide appears as a single peak at the expected molecular mass (4683 Da).
A single colony of E. coli TG1 strain was cultured in 2×TY medium to 0.2 OD^600. […] The following day colonies (CFU/ml) grown on plates were counted.

LPS = test: Limulus amebocyte lysate test (E-toxate), LPS neutralization; settings: not shown
[1] = tested on: LPS from K. pneumoniae ATCC15380; TNF-α secretion by Raw 264.7 macrophages; test: Inhibition of LPS-induced TNF-α secretion by Raw 264.7 macrophages, LPS from K. pneumoniae; type: cell-based
Method: FIG. 3. Inhibition of TNF-α release by neutralization of LPS. A, Raw 264.7 cells were incubated with LPS from P. aeruginosa 20 ng/ml and M33. Triangles indicate incubation with LPS and different concentrations of M33. Squares indicate incubation with M33 only. B, Raw 264.7 cells were incubated with LPS from K. pneumoniae 5 ng/ml and M33. Triangles indicate incubation of macrophages with LPS and different concentrations of M33. Squares indicate incubation of macrophages with M33 only. SD derived by means of three different experiments. 100% indicates the maximum amount of TNF-α produced by macrophages when incubated with LPS without M33. The other percentages indicate the amount of TNF-α produced by macrophages when incubated with LPS and M33, with respect to 100%. Basal levels of TNF-α were negligible. MIC of M33 is indicated by the arrow.
(§2) Then it was examined for inhibiting LPS-induced TNF-α, secretion by Raw 264.7 macrophages.

P. aeruginosa ATCC 27853 = test: In vivo antibacterial activity, mice infected ip with lethal amount of P. aeruginosa ATCC 27853; parameters: species or system Balb-c mice; settings: for Animals protected from death: P. aeruginosa ATCC 27853 1×10^7 CFU ip
Method: (§3) FIG. 4. In vivo antibacterial activity of tetra-branched M33 peptide. A, Balb-c mice (20 g) were intra-peritoneally injected with a lethal amount of E. coli TG1 cells (1.5×10^9 CFU). Continuous line (Ctr) indicates mice only injected ip with bacteria and no M33. Broken line indicates mice injected ip with bacteria and a single injection of M33 peptide 10 mg/Kg 30 minutes later. B, Balb-c mice (20 g) were intra-peritoneally injected with a lethal amount of P. aeruginosa cells (ATCC 27853 1×10^7 CFU). Continuous line (Ctr) indicates mice which only received bacteria; other groups received bacteria and a single dose of M33 30 minutes later (see figure for doses of M33). C, Balb-c mice (20 g) were intra-peritoneally injected with a lethal amount of P. aeruginosa cells (multi drug resistant VR 147 clinical isolate, 1.5×10^7 CFU). Continuous line (Ctr) indicates mice which only received bacteria; broken line indicates mice which received bacteria and a single dose of M33 25 mg/Kg. D, Balb-c mice (20 g) were intra-peritoneally injected with a lethal amount of P. aeruginosa cells (ATCC 27853 1×10^7 CFU). Continuous line (Ctr) indicates mice which only received bacteria; long broken line, mice receiving bacteria and two injections of M33 (5 mg/Kg×2), 30 minutes and 12 hours after bacteria; short broken line, mice receiving bacteria and three injections of M33 (5 mg/Kg×3), 30 minutes, 12 and 24 hours after bacteria. P<0.05.
Tetra-branched M33 peptide was analysed for its antibacterial activity in mice infected with lethal amounts of bacteria. Two different bacterial species were used, Escherichia coli and Pseudomonas aeruginosa. […] Balb-c mice were infected with the LD100 of bacteria and treated 30 minutes later with the peptide by ip administration.

P. aeruginosa VR-143/97 = test: In vivo antibacterial activity, mice infected ip with lethal amount of MDR P. aeruginosa VR-143/97; parameters: species or system Balb-c mice; settings: MDR P. aeruginosa VR-143/97 1.5×10^7 CFU ip; single dose 25 mg/Kg
Method: as §3, with “Continuous line (Ctr) indicates mice which only received bacteria; long broken line, mice receiving bacteria and two injections of M33 (5 mg/Kg×2), 30 minutes and 12 hours after bacteria; short broken line, mice receiving bacteria and three injections of M33 (5 mg/Kg×3), 30 minutes, 12 and 24 hours after bacteria. P<0.05.” left out
Tetra-branched M33 peptide was analysed for its antibacterial activity in mice infected with lethal amounts of bacteria. […]

[2] = tested on: P. aeruginosa and K. pneumoniae; type: cell-based; settings: 24 h
Method: as §1, §2

CC[C@H](C)[C@H](NC(=O)[C@H](CCCCN)NC(=O)[C@@H](N)CCCCN)C(=O)N[C@@H](CCCNC(=N)N)C(=O)N[C@H](C(=O)N[C@@H](CCCNC(=N)N)C(=O)N[C@@H](CC(C)C)C(=O)N[C@@H](CO)C(=O)N[C@@H](C)C(=O)NCCCC[C@H](NC(=O)[C@H](C)NC(=O)[C@H](CO)NC(=O)[C@H](CC(C)C)NC(=O)[C@H](CCCNC(=N)N)NC(=O)[C@@H](NC(=O)[C@H](CCCNC(=N)N)NC(=O)[C@@H](NC(=O)[C@H](CCCCN)NC(=O)[C@@H](N)CCCCN)[C@@H](C)CC)C(C)C)C(=O)NCCCC[C@H](NC(=O)[C@H](CCCCNC(=O)[C@H](C)NC(=O)[C@H](CO)NC(=O)[C@H](CC(C)C)NC(=O)[C@H](CCCNC(=N)N)NC(=O)[C@@H](NC(=O)[C@H](CCCNC(=N)N)NC(=O)[C@@H](NC(=O)[C@H](CCCCN)NC(=O)[C@@H](N)CCCCN)[C@@H](C)CC)C(C)C)NC(=O)[C@H](C)NC(=O)[C@H](CO)NC(=O)[C@H](CC(C)C)NC(=O)[C@H](CCCNC(=N)N)NC(=O)[C@@H](NC(=O)[C@H](CCCNC(=N)N)NC(=O)[C@@H](NC(=O)[C@H](CCCCN)NC(=O)[C@@H](N)CCCCN)[C@@H](C)CC)C(C)C)C(=O)NCCC(=O)O)C(C)C [M33, KKIRVRLSA] (I: H-KKIRVRLSAKK[βAla]-OH / II: H-KKIRVRLSAK / III: H-KKIRVRLSA / IV: H-KKIRVRLSA; amide I:10-IV:C, I:11-II:C, II:10-III:C; N-terminus assumed)
MIC (K pneumoniae 7086042): 3 µM (≈ 14 µg/mL)
MIC (K pneumoniae C8-27): 1.5 µM (≈ 7.02 µg/mL)
MIC (K pneumoniae FIPP-1): 3 µM (≈ 14 µg/mL)
MIC (S. aureus 3851): 6 µM (≈ 28.1 µg/mL)
Antibacterial activity against E. coli TG1 cells (comparison of tetra-branched peptides, FIG. 1A) (E. coli TG1): improved peptide activity
Neutralization of sample gelification due to LPS (LPS): ability to neutralize sample gelification due to LPS
EC50 ([1]; Raw 264.7 macrophages, LPS from K. pneumoniae ATCC15380, 5 ng/ml, read-out: EC50, block of TNF-α secretion): 260 nM
Decrease of TNF-α production ([1]; at a concentration corresponding to MIC (1.5-3 μM), LPS from K. pneumoniae): more than 80%
Animals protected from death (P. aeruginosa ATCC 27853; single dose 6.5 mg/Kg ip 30 minutes later): did not protect them from death
Animals protected from death (P. aeruginosa ATCC 27853; single dose 12.5 mg/Kg ip 30 minutes later): 25%
Animals protected from death (P. aeruginosa ATCC 27853; single dose 25 mg/Kg ip 30 minutes later): 75%
Survival beyond seven days after infection (P. aeruginosa ATCC 27853; P. aeruginosa ATCC 27853, three doses of 5 mg/Kg (30 min, 12 h and 24 h after infection)): 100%
Survival after multiple doses (P. aeruginosa ATCC 27853; P. aeruginosa ATCC 27853, two doses of 5 mg/Kg (30 min and 12 h after infection)): death was delayed
Animals protected (P. aeruginosa VR-143/97): 100%
MIC [2]: 1.5 to 3 µM
